Measurements: US8287923B2, “Compositions and methods for treating immune disorders” (priority 2005, dated 2012)

What was measured:
Assay type in all cases: cell-based, human
[1] = tested on: NS-SV-AC cells; assay: Western blot of p38, ERK and JNK phosphorylation
Experimental: (§1) Western blot. Cells were washed in ice-cold PBS and lysed for 20 min in RIPA buffer containing 1% (v/v) Nonidet P-40, 0.5% (w/v) sodium deoxycholate, 0.1% (w/v) SDS, 10 μg/ml leupeptin, 3 μg/ml aprotinin and 100 mM phenylmethylsulfonyl fluoride (PMSF). Samples of lysates containing the same amount of protein were loaded in each lane (we used 5-30μg, depending on the antibody used) and electrophoretically separated on a 12% SDS polyacrylamide gel. Following electrophoresis, proteins were transferred to a PVDF membrane (Immobilon™-P, Millipore Corporation, Bedford, Mass.). The membrane was blocked for 1 h with 5% (w/v) non-fat dry milk powder in PBST (0.1% Tween-20 in PBS) and then incubated for 1 h with primary antibody diluted in PBST/milk (Antibodies and dilutions: rabbit polyclonal JNK1/2, […], mouse monoclonal pJNK1/2, 1:1000, rabbit polyclonal ERK, 1:2000, rabbit polyclonal p38, 1:1000, rabbit polyclonal pp 38, 1:1000 and goat polyclonal actin, 1:2000). The membrane was washed three times with PBST and incubated with peroxidase-conjugated, affinity-purified anti-rabbit IgG (Santa Cruz Biotechnology, Inc.) for 1 h. Following extensive washing, the reaction was developed by enhanced chemiluminescent staining using ECL Western blotting detection reagents (Amersham Pharmacia Biotech Inc., Piscataway, N.J.).
p38 activation is one mechanism by which GTPs attenuates mechanisms of SS pathogenesis. […] Therefore, of these three signaling pathways, EGCG activates primarily p38 in NS-SV-AC cells.

[2] = tested on: NHEK; assay: Western analysis of autoantigen protein levels; details: 100 uM
Experimental: as §1
(§2) To extend the mRNA data, the protein levels of 6 different autoantigens in NHEK and NS-SV-AC cells were determined by Western analysis following two treatments with 100 uM EGCSG at 24 and 48 hrs.

[3] = tested on: NS-SV-AC cells; assay: Western analysis of autoantigen protein levels; details: 100 uM
Experimental: as §1, §2

[4] = tested on: NHEK; assay: Affymetrix gene array analysis, inflammatory gene expression; details: 100 μM, vs time 0
Experimental: The gene array experiment was performed at the Core Facility of Genomics of the Medical College of Georgia, according to the instructions of the manufacturer (Affymetrix, Santa Clara, Calif.). Briefly, NHEK and OSC2 cells treated with 100 μM EGCG for different time period were extracted for total RNA, the RNA was processed for probes and hybridized with a cDNA microarray (HuG133A, Affymetrix) which represents 22,283 human series. DNA chips were read with a Hewlett-Packard GeneArray Scanner at a resolution of […] and were analyzed with the GeneSpring software (Silicon Genetics, Redwood City, Calif.). Details of this analysis will be published elsewhere (Hsu et al., manuscript in preparation).

[5] = tested on: OSC2 cells; assay: Semi-quantitative RT-PCR of SS-A/Ro and SS-B/La mRNA; details: 100 uM EGCG
Experimental: Total RNA was extracted using an RNeasy total RNA isolation system (QIAGEN, Valentia, Calif.) RT reactions and PCR reactions were performed according to the manufacturer's protocol (Super Array Bioscience Corp). For amplification, the following pair of primers was used,
Amplification was started by heating for 1.5 min at 94° C., followed by 30 cycles for 52 kD SSA/Ro. 25 cycles for GAPDH and 25 cycles for SSB/La, each cycle consisting of 15
second at 94° C., 30 seconds at 57.3° C., and 1 min at 72° C. A final extension was performed at 72° C. for 5 min prior to gel analysis.
To further test this possibility, three cell types, NHEK, NS-SV-AC (an SV40 immortalized cell line derived from human submandibular acinar cells) and OC2 cells (derived from an oral squamous cell carcinoma) were treated with 100 uM EGCG for different times. A semi-quantitative estimate of SS-A/Ro and SS-B/La mRNA levels was then obtained by RT-PCR during the exponential period of amplification. GAPDH was used as a housekeeping gene control.

Which results are given for `O=C(O[C@@H]1Cc2c(O)cc(O)cc2O[C@@H]1c1cc(O)c(O)c(O)c1)c1cc(O)c(O)c(O)c1` [EGCG, (−)-epigallocatechin-3-gallate]?
pERK [1]: only a slight increase; phosphorylation of JNK [1]: not altered; phosphorylation of p38 [1]: rapid and sustained phosphorylation; time to p38 phosphorylation [1]: ≤ 30 min; PARP protein level ([2]; 24 hrs): significantly reduced; SS-A/Ro 52 protein level ([2]; 24 hrs): Neither SS-A/Ro 52 nor SS-B/La were significantly reduced; SS-B/La protein level ([2]; 24 hrs): Neither SS-A/Ro 52 nor SS-B/La were significantly reduced; coilin protein level ([2]; 24 hrs): significantly reduced; Golgin-67 protein level ([2]; 48 hrs): the reduction was not as marked and was only observed at 48 hrs; PARP protein level ([2]; 48 hrs): barely detectable; SS-A/Ro 52 protein level ([2]; 48 hrs): considerably reduced; SS-B/La protein level ([2]; 48 hrs): considerably reduced; coilin protein level ([2]; 48 hrs): barely detectable; Golgin-67 protein level ([3]; 24 hrs): reduced; PARP protein level ([3]; 24 hrs): significantly reduced; SS-A/Ro 52 protein level ([3]; 24 hrs): Neither SS-A/Ro 52 nor SS-B/La were significantly reduced; SS-B/La protein level ([3]; 24 hrs): Neither SS-A/Ro 52 nor SS-B/La were significantly reduced; coilin protein level ([3]; 24 hrs): significantly reduced; Golgin-67 protein level ([3]; 48 hrs): barely detectable; PARP protein level ([3]; 48 hrs): barely detectable; SS-A/Ro 52 protein level ([3]; 48 hrs): considerably reduced; SS-B/La protein level ([3]; 48 hrs): considerably reduced; coilin protein level ([3]; 48 hrs): barely detectable; BMP2 (205290_s_at) expression ([4]; 0.5 h): 0.32 fold; IFNGR1 (202727_s_at) expression ([4]; 0.5 h): 0.79 fold; IL1A (210118_s_at) expression ([4]; 0.5 h): 0.66 fold; IL1B (39402_at) expression ([4]; 0.5 h): 0.29 fold; IL1B (205067_at) expression ([4]; 0.5 h): 0.29 fold; IL6R (205945_at) expression ([4]; 0.5 h): 0.48 fold; IL6ST (21100_s_at) expression ([4]; 0.5 h): 0.34 fold; IL8 (202859_x_at) expression ([4]; 0.5 h): 6.02 fold; IL10RB (209575_at) expression ([4]; 0.5 h): 0.43 fold; IL13RA2 (206172_at) expression ([4]; 0.5 h): 0.33 fold; IL18 (206295_at) expression ([4]; 0.5 h): 0.33 fold; TNFSF15 (221085_at) expression ([4]; 0.5 h): 0.52 fold; p38 (21156_x_at) expression ([4]; 0.5 h): 2.32 fold; p38 (202530_at) expression ([4]; 0.5 h): 2.51 fold; BMP2 (205290_s_at) expression ([4]; 2 h): 0.96 fold; IFNGR1 (202727_s_at) expression ([4]; 2 h): 0.91 fold; IL1A (210118_s_at) expression ([4]; 2 h): 0.42 fold; IL1B (39402_at) expression ([4]; 2 h): 0.48 fold; IL1B (205067_at) expression ([4]; 2 h): 0.58 fold; IL6R (205945_at) expression ([4]; 2 h): 0.69 fold; IL6ST (21100_s_at) expression ([4]; 2 h): 0.28 fold; IL8 (202859_x_at) expression ([4]; 2 h): 9.55 fold; IL10RB (209575_at) expression ([4]; 2 h): 0.63 fold; IL13RA2 (206172_at) expression ([4]; 2 h): 0.74 fold; IL18 (206295_at) expression ([4]; 2 h): 0.65 fold; TNFSF15 (221085_at) expression ([4]; 2 h): 1.56 fold; p38 (21156_x_at) expression ([4]; 2 h): 1.46 fold; p38 (202530_at) expression ([4]; 2 h): 1.09 fold; BMP2 (205290_s_at) expression ([4]; 6 h): 0.72 fold; IFNGR1 (202727_s_at) expression ([4]; 6 h): 0.45 fold; IL1A (210118_s_at) expression ([4]; 6 h): 0.54 fold; IL1B (39402_at) expression ([4]; 6 h): 0.40 fold; IL1B (205067_at) expression ([4]; 6 h): 0.49 fold; IL6R (205945_at) expression ([4]; 6 h): 0.31 fold; IL6ST (21100_s_at) expression ([4]; 6 h): 0.99 fold; IL8 (202859_x_at) expression ([4]; 6 h): 9.99 fold; IL10RB (209575_at) expression ([4]; 6 h): 0.76 fold; IL13RA2 (206172_at) expression ([4]; 6 h): 0.81 fold; IL18 (206295_at) expression ([4]; 6 h): 0.70 fold; TNFSF15 (221085_at) expression ([4]; 6 h): 0.67 fold; p38 (21156_x_at) expression ([4]; 6 h): 1.62 fold; p38 (202530_at) expression ([4]; 6 h): 0.63 fold; BMP2 (205290_s_at) expression ([4]; 24 h): 0.44 fold; IFNGR1 (202727_s_at) expression ([4]; 24 h): 0.92 fold; IL1A (210118_s_at) expression ([4]; 24 h): 0.27 fold; IL1B (39402_at) expression ([4]; 24 h): 0.27 fold; IL1B (205067_at) expression ([4]; 24 h): 0.26 fold; IL6R (205945_at) expression ([4]; 24 h): 0.69 fold; IL6ST (21100_s_at) expression ([4]; 24 h): 0.61 fold; IL8 (202859_x_at) expression ([4]; 24 h): 9.93 fold; IL10RB (209575_at) expression ([4]; 24 h): 0.38 fold; IL13RA2 (206172_at) expression ([4]; 24 h): 0.55 fold; IL18 (206295_at) expression ([4]; 24 h): 0.65 fold; TNFSF15 (221085_at) expression ([4]; 24 h): 0.63 fold; p38 (21156_x_at) expression ([4]; 24 h): 2.51 fold; p38 (202530_at) expression ([4]; 24 h): 1.17 fold; SS-A/Ro mRNA level [5]: showed little change; reduction in SS-B/La mRNA [5]: less pronounced and did not occur until 24 hrs of exposure
